Entries after “also recorded” stand apart in the source; their conditions may differ. Where two headings read alike, the source gives them in different places.
Key:
[1] = test system: serum amyloid P component (SAP); assay: Serum amyloid P component (SAP) in sera of mice exposed to sensitizers; type: in vivo; conditions: sera of mice exposed to sensitizer
[2] = test system: Normal human epidermal keratinocytes (HEKn); assay: Keratinocyte blebbing response, light microscopy (Example 1)
Procedure: Normal human epidermal keratinocytes (HEKn, Cascade Biologics, Portland, Oreg., USA) were maintained in phenol red-free EpiLife keratinocyte medium (Cascade Biologics) supplemented with 60 μM CaCl2, the antibiotics gentamicin/amphotericin and 1% (v/v) human keratinocyte growth supplement (HKGS; Cascade Biologics). Alternatively, Medium 154 containing 200 μM CaCl2 supplemented with HKGS (1% (v/v), without antibiotics is used. Cells were grown at 37° C. in a humidified 5% CO2 incubator. Final concentrations of the components in the supplemented medium were: bovine pituitary extract, 0.2% v/v; bovine insulin, […]; hydrocortisone, […]; bovine transferrin, […]; human epidermal growth factor, 0.2 ng/mL; optional: gentamicin, 10 μg/mL and amphotericin B, 0.25 μg/mL. All reagents were obtained from Cascade Biologics, Portland, Oreg., USA. The keratinocytes were used for experiments in the fifth or sixth passage.
HEKn cells in passage 6 were split and resuspended to 18500 cells/ml in medium 154 (Cascade Biologics) supplemented with 1% (v/v) human keratinocyte growth supplement (HKGS; Cascade Biologics, no antibiotics added). Cell suspension (0.5 ml) was added to each well in a 24 well plate (Nunc Multidishes Nunclon, Sigma Aldrich, Stockholm, Sweden) and incubated at 37° C., 5% CO2. The medium was replaced every second day by fresh 154 medium supplemented with HKGS (no antibiotics added) until cells had grown confluent.
The compounds to be tested (for example: mBBr, SDS, CDNB, nonanoic acid, HCA, oxazolone were purchased from Sigma Aldrich, qBBr, dBBr, glyoxal, and formaldehyde were obtained from Merck-Schuchardt, Darmstadt, Germany) were diluted in DMSO (Sigma Aldrich, Stockholm, Sweden) to final concentrations of 50 mM, 5 mM and 0.5 mM. These stock solutions were prepared fresh each time the experiment was performed. Alternatively, the mixture, solution, formulation, etc. can be used after dilution/dissolving in DMSO (to test the combined effects of the compounds in that particular preparation).
1) Cell preparation just prior to starting the experiment: the medium in the cell culture plate was replaced by 250 μl fresh Medium 154 (Cascade Biologics) supplemented with HKGS (1% (v/v) human keratinocyte growth supplement (HKGS; Cascade Biologics)) and the cells are kept at 37° C., 5% CO2.
2) Preparation of test compound in medium: 245 μl Medium 154 was added to 0.5 ml microtubes and preheated to 37° C. (waterbath). 5 μl of stock solution of compound was added to the microtubes containing preheated medium. These solutions were then added immediately to the cells in the 24-well plate.
3) The solutions in the microtubes (i.e. 250 μl medium+test compound) were added to each plate. The final concentration of each compound in the test was thus 0.5 mM, 0.05 mM, and 0.005 mM. The plate containing cells and test compounds was incubated for 24 hours at 37° C., 5% CO2.
4A) Each well was examined with a light microscope to determine the blebbing response (a Nikon TE300 inverted microscope) coupled to a digital camera.

[3] = test system: anti-nuclear antibodies (ANA); assay: Anti-nuclear antibodies (ANA) in sera of mice topically exposed to haptens; type: in vivo; conditions: topical exposure
[4] = test system: K5 and K14 in blebs from human keratinocytes; assay: Keratin content of blebs released from keratinocytes (Western blot); type: cell-based; conditions: blebs from hapten-treated keratinocytes
Procedure: The quantification of the blebbing response was also made by observing: the amount of released protein (e.g. K5 and K14) through SDS-PAGE and western blots. Blebs were collected and lysed as described in example 4. SDS-PAGE: The samples were diluted (Blebs: 46 μg, 30 μl for blotting and 29.2 μg, 40 μl for SDS-PAGE. K14 and K5: 0.2 μg, 5 μl) with XT Sample Buffer 4X (BioRad, Hercules, Calif., USA) and milli-Q water. 1 μl DTT (2M) was added to each sample followed by heating at 96° C. for 2 minutes before application on the gel. Electrophoresis program: 200V, 400 mA, 50 W, 50 min. MOPS Running Buffer. The gels were fixed, scanned for fluorescence (excitation 480 nm, emission 530 nm) and coomassie stained (Bio-Safe™ Coomassie, BioRad, Hercules, Calif., USA). The gels are then used for quantitative measurement of proteins. Western Blot: Unfixed gels were blotted onto polyvinyldifluoride membranes (PVDF Ready-gel Blotting Sandwiches, 7×8.5 cm, BioRad, Hercules, Calif., USA). Blotting program: 70 V, 400 mA, 50 W, 30 min. Transfer buffer. Novex XCell II™ Blot Module (E19051, Novex, San Diego, Calif., USA). […]
The blebs in the supernatant was lysed with 4× freeze-thaw cycles using ethanol, dry ice and a 37° C. water bath. […] Total protein concentration was determined with Pierce BCA Protein Assay. […]

[5] = test system: human skin excerpts; assay: Labeling of human skin excerpts by caged haptens
Text: The first step is that the molecules come into contact with the skin (the stratum corneum). Many of the reactive molecules react in the stratum corneum, something that can be seen in experiments with human skin excerpts and the caged (mBBr and dBBr) haptens. However, a significant proportion of the molecules penetrate further down to the suprabasal layers of the epidermis but also the follicular pathway is of importance for bringing xenobiotics into the skin. It is likely that the penetration is due both to the acidic pH of the stratum corneum (the molecules react more slowly when the pH is low), but also because many of the available groups have reacted. In the suprabasal layers, the haptens have a hard time penetrating the cells, as the cornification of the cells creates a thick, relatively impermeable envelope around the suprabasal cells. Consequently, the haptens penetrate down to the basal layer. Here, the cell membrane is much thinner and more fluidic and the molecules can thus enter the basal cells.

[6] = target: T1, cysteine 54 (C54) of K5 (Homo sapiens, UniProt P13647); assay: Haptenation site by LTQ-FT-ICR mass spectrometry; conditions: full-thickness human skin and living human keratinocytes
T1 construct: endogenous in cells; host or cells: intact full-thickness human skin; living (primary) human keratinocytes
T1 sequence (P13647 1-590): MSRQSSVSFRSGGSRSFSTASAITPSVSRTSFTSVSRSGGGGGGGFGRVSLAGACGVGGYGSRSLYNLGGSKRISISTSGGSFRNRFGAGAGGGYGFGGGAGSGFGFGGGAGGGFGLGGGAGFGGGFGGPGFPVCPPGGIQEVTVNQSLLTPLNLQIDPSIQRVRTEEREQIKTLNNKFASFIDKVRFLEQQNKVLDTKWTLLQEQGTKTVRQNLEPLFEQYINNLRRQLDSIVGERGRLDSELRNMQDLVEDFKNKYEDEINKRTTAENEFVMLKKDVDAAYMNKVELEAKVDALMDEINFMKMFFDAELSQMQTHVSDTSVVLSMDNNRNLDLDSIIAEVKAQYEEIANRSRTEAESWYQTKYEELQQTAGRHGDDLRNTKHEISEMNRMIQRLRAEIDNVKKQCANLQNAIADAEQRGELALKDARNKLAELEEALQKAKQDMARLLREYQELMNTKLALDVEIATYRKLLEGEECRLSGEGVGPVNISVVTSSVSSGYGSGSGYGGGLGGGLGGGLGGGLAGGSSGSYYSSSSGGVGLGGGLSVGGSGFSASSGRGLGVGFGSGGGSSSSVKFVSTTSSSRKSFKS
T1 sequence (P02533 1-472 partner): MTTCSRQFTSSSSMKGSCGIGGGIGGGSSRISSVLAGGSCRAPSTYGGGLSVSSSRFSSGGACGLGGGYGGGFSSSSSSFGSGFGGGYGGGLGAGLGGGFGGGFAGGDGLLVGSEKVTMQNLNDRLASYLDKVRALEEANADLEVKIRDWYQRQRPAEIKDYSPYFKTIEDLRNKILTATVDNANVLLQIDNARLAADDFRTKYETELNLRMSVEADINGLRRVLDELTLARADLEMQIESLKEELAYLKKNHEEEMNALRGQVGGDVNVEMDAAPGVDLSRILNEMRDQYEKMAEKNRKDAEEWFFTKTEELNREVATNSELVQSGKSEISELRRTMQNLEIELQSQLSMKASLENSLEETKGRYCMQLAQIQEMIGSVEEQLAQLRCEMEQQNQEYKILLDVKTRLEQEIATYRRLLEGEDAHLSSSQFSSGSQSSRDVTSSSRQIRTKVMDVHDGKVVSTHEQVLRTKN
Text: The second step is that the molecules enter the basal cells. Since the extracellular environment is oxidizing, extracellular cysteines are mostly oxidized to disulfides. However, it is in the reduced, intracellular environment that the haptens find reduced thiols to react with. Once inside the cells the compounds will react with available (i.e. not sterically hindered), reduced cysteines (thiol groups). […] Furthermore, it was identified that one of the cysteines that the haptens react with is cysteine 54 (C54) of K5. […] One of the reasons for intense reaction at C54 is presumably its high effective concentration just inside the cell membrane. It is vital in the life of an organism to fail-safe its epithelial integrity, and the bundling of the KIFs ensures a high effective local concentration of the peptide stretch containing C54, ensuring strong welding of the cell to its surroundings. Amino acids nearby in the primary sequence are consequently also located within physical reach of an incoming compound in similarly high effective concentrations. Looking at blebbing brought on by amine- and arginine-reactive compounds from this angle, the residues K71 and R72 are the closest candidates in the primary sequence.

[7] = HEKn cells, tested at 0.5, 0.05 and 0.005 mM
[8] = HEKn cells, time 24 h and concentration 0.5 mM, visual inspection, blind
[9] = compound added to human keratinocytes

| SMILES | Level of serum amyloid P component (SAP) [1] | Concentration at which the cells produced blebs after 24 hours [2, 7] | Amount of blebs [2, 8] | Blebbing response of human keratinocytes (induced or not) [2, 9] | Level of anti-nuclear antibodies (ANA) in sera [3] | Blebbing response of human keratinocytes (induced or not) [2] | Keratins (K5 and K14) in blebs [4] | Sensitizing potential, collective analysis of the three blebbing endpoints [2] | other results |
| --- | --- | --- | --- | --- | --- | --- | --- | --- | --- |
| O=[N+]([O-])c1ccc(Cl)c([N+](=O)[O-])c1 [CDNB, 1-chloro 2,4 dinitrobenzene] | increased levels | 500 µM | ++ | provoke a blebbing response | increased levels |  |  |  | Time to blebbing ([2]; HEKn cells, inspected at 1.5, 2.5 and 24 h, tested at 0.5, 0.05 and 0.005 mM): 24 h; Sensitizing potential, collective analysis of the three blebbing endpoints ([2]; time to blebbing, concentration, amount of blebs combined): strong sensitizers |
| CCCCCCC(C=O)=Cc1ccccc1 [HCA, α-hexyl cinnamic aldehyde] |  |  |  |  |  | did not induce blebbing at the tested concentrations |  |  |  |
| C=O [formaldehyde] |  |  |  |  |  | provoke a blebbing response |  |  |  |
| O=CC=O [glyoxal] | increased levels | 500 µM | + | provoke a blebbing response | increased levels |  | contain K5 and K14; also recorded: contain keratins | moderate sensitizer |  |
| Cc1c(C)n2c(CBr)c(C)c(=O)n2c1=O [mBBr, monobromobimane] |  |  |  |  | increased levels |  |  |  | Labeling of cells in the basal layer [5]: cells in the basal layer are labeled; Covalent modification of C54 of K5 [6]: modify C54 of K5; also recorded: modifies C54 of K5 |
| CCO/C=C1\N=C(c2ccccc2)OC1=O [oxazolone] |  |  |  |  | increased levels | provoke a blebbing response | contain K5 and K14; also recorded: contain keratins | extreme sensitizer | Amount of blebs [2]: +++; Time to blebbing [2]: 1.5 h |

Source: US20110245104A1, “Method for screening the sensitizing properties of chemical compounds” (priority 2010, published 2011)
